Here are results for 2 compounds from patent US20250313648A1, “Binders of Chondroitin Sulfate Proteoglycan (CSPG4) Polypeptides” (Regents of the University of Minnesota, priority 2021, published 2025).

Each structure is given as a SMILES string.

Assay [1] concerns ZEB1 expression in HEY cells. Put plainly: Western blot for pFAK, FAK and ZEB1 after FAK inhibitor treatment. The format is cell-based, human. The following applies: normal growth medium, 24 hours, vs DMSO. How it is done: FIGS. 9A-9J. CSPG4 expression is associated with epithelial-to-mesenchymal plasticity, mediated by CSPG4 associated changes in ZEB1 expression. FIG. 9A) The indicated cell lines both Mock(M) and CRISPR(C) were cultured separately in spheroid formation assays for 7 days, collected and analyzed by western blot for various EMT markers. FIG. 9B) Western blot for Zebl and CSPG4 expression in EOC cell lines treated with siRNA for ZEB1 or control for 48 hours. FIG. 9C) Western blot for pFAK, FAK and ZEB1 in HEY cells treated with either DMSO (control) or FAK inhibitor PND-1186 at the indicated concentrations in normal growth medium for 24 hours. FIG. 9D) Spheroid formation in methylcellulose of EOC cell lines treated with siRNA to ZEB1 or control for 7 days. Bars represent spheroid counts from five random fields/well from triplicate wells+/−S.D. *p<0.02 by students t-test with Welch's correction. n=3 from 3 individual experiments. FIG. 9E) Invasion assay of EOC cells treated with ZEB1 siRNA or control siRNA (methods). *p<0.002 by student's t-test with Welch's correction. n=3 from 3 individual experiments. FIGS. 9F and 9G) Cells were transfected with control or ZEB1 siRNA overnight and plated in the cisplatin cytotoxicity assay the following day. MTS data was collected after 4 days of cisplatin treatment. […]
Background: Immunoblotting shows a protein as a band on a membrane.

Assay [2] deals with ES-2, HEY, A2780 mock and CSPG4 knockout cells. The assay can be described thus: Cisplatin cytotoxicity assay (MTS). It counts as cell-based, human. The following applies: CSPG4 knockout vs mock, three cell lines (A2780, HEY, ES-2), 96 hours of treatment. From the text: FIGS. 5A-5G. CSPG4 knockout results in significant loss of invasive capacity and cisplatin resistance in multiple ovarian tumor cell lines. Invasion assays using control (Mock) and CSPG4 knockout (CRISPR) HEY cells (FIG. 5A) or A2780 cells (FIG. 5B). Bars represent the total number of invading cells from five random fields/well from triplicate wells, +/−S.D., from three replicate experiments, n=6. P values determined by student's t-test with Welch's correction. […] Lanes: 1—ES-2 Parent, 2—ES-2 Mock, 3—ES-2 CSPG4 knockout, 4—ES-2 CSPG4 Rescue. […] Invasive capacity is rescued in the ES-2 CRISPR knockout line with CSPG4 re-expression (Rescue). P values determined by student's t-test with Welch's correction. FIGS. 5E-G show the cell viability of mock and knockout (CRISPR) A2780 cells (FIG. 5E), mock and knockout HEY cells (FIG. 5F), and mock, knockout and rescue ES-2 cells (FIG. 5G) treated with increasing concentrations of cisplatin. Dose response curves were plotted as the percent of MTS staining vs. untreated cells for each cell line +/−s.e.m. from three replicate experiments (n=9). The phenotype was rescued by re-expression of CSPG4 in the ES-2 CRISPR cells (ES-2 Rescue, in FIG. 5G).
Cisplatin cytotoxicityAssay: Cisplatin stock (3.3 mM) was diluted with growth medium to the required concentrations before each experiment. […] Absorbance at 570 nm was collected on a Tecan 200 plate reader. […]

`CNC(=O)c1ccccc1Nc1cc(Nc2ccc(N3CCOCC3)cc2OC)ncc1C(F)(F)F` [PND-1186]: the ZEB1 expression result in assay [1] is “inhibited”.

Take `N.N.[Cl][Pt][Cl]` [cisplatin, Cisplatin]: in assay [2], the “reduction in the IC50 for the knockout cell lines” value was 3.6-to-8.8 fold.
